Reference: patent US20170334899A1, “AMINO-SUBSTITUTED ISOTHIAZOLES” (Bayer Pharma Aktiengesellschaft, priority 2014, published 2017)

How the values were obtained:
[1] = test system: human cervical tumor cell line HeLa (ATCC CCL-2); assay: SAC-Formation - Nocodazole-Induced Assay; type: cell-based; settings: Homo sapiens, HeLa, 24 h, HeLa cells, nocodazole 0.1 μg/ml together with test compound, decrease of mitotic cells (phospho-histone H3 Ser10)
Outline: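 HeLa cells, plated overnight, were treated 24 h at 37 °C with nocodazole (0.1 μg/ml final) plus test compound (0.005–20 μM, 0.5% DMSO) added at the same time. After fixation, anti-phospho-histone H3 Ser10 and Hoechst staining gave the mitotic cell fraction by imaging. Values came from four-parameter Hill fits.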

[2] = target: T1, CDK2/CycE (Homo sapiens, UniProt P24941); assay: CDK2/CycE kinase assay (TR-FRET); type: biochemical; settings: avg, read-out: CDK2 avg (IC50 [mol/l])
T1 construct: GST; purchased ProQinase GmbH (Freiburg, Germany); host or cells: insect cells (Sf9)
Outline: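 GST-tagged human CDK2 and CycE from Sf9 cells, preincubated 15 min with compound, then 25 min at 22° C. with 10 μM ATP and 0.75 μM biotinylated Rb-derived peptide (final). Phospho-substrate read by TR-FRET (anti-pRB pSer807/pSer811, Eu anti-mouse IgG, streptavidin-XL665), 665/620 nm ratio, normalised to no-inhibitor and no-enzyme controls.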

With `Cc1nsc(Nc2cnc(C(F)(F)F)cn2)c1C(=O)Nc1ccc(OC2CCN(CCF)C2)nc1` (stereo not drawn) [Example 295, N-(6-{[1-(2-fluoroethyl)pyrrolidin-3-yl]oxy}pyridin-3-yl)-3-methyl-5-{[5-(trifluoromethyl)pyrazin-2-yl]amino}-1,2-thiazole-4-carboxamide] as the compound, how does the IC50 [1] read?
Its IC50 is 0.59 µM.

And the IC50 [2]?
The IC50 was > 20 µM.

For `Cc1nsc(Nc2cnc(C(F)(F)F)cn2)c1C(=O)Nc1ccc(OC2CCN(CC(F)F)C2)nc1` (stereo not drawn) [Example 296, N-(6-{[1-(2,2-difluoroethyl)pyrrolidin-3-yl]oxy}pyridin-3-yl)-3-methyl-5-{[5-(trifluoromethyl)pyrazin-2-yl]amino}-1,2-thiazole-4-carboxamide], which IC50 [1] is on record?
The IC50 was 0.18 µM.

And the IC50 [2]?
The IC50 was > 20 µM.

Which results are given for `Cc1nsc(Nc2cnc(C(F)(F)F)cn2)c1C(=O)Nc1ccc(OC2CCN(CC(F)(F)F)C2)nc1` (stereo not drawn) [Example 297, 3-methyl-N-(6-{[1-(2,2,2-trifluoroethyl)pyrrolidin-3-yl]oxy}pyridin-3-yl)-5-{[5-(trifluoromethyl)pyrazin-2-yl]amino}-1,2-thiazole-4-carboxamide]?
IC50 [1]: 0.08 µM; IC50 [2]: > 20 µM

Which results are given for `Cc1nsc(Nc2cnc(C(F)(F)F)cn2)c1C(=O)Nc1ccc(OC2CCN(CCC(F)(F)F)C2)nc1` (stereo not drawn) [Example 298, 3-methyl-5-{[5-(trifluoromethyl)pyrazin-2-yl]amino}-N-(6-{[1-(3,3,3-trifluoropropyl)pyrrolidin-3-yl]oxy}pyridin-3-yl)-1,2-thiazole-4-carboxamide]?
IC50 [1]: 0.08 µM; IC50 [2]: > 20 µM

What does the source list for `Cc1nsc(Nc2cnc(C(F)(F)F)cn2)c1C(=O)Nc1ccc(N(C)C)c(OCCCN(C)CC(F)(F)F)c1` [Example 299, N-[4-(dimethylamino)-3-{3-[methyl(2,2,2-trifluoroethyl)amino]propoxy}phenyl]-3-methyl-5-{[5-(trifluoromethyl)pyrazin-2-yl]amino}-1,2-thiazole-4-carboxamide]?
IC50 [1]: 0.21 µM; IC50 [2]: > 20 µM

For `Cc1nsc(Nc2cnc(C(F)(F)F)cn2)c1C(=O)Nc1ccc(N(C)C)c(OCCCN(C)CCC(F)(F)F)c1` [Example 300, N-[4-(dimethylamino)-3-{3-[methyl(3,3,3-trifluoropropyl)amino]propoxy}phenyl]-3-methyl-5-{[5-(trifluoromethyl)pyrazin-2-yl]amino}-1,2-thiazole-4-carboxamide], which IC50 [1] is on record?
Its IC50 is 0.44 µM.

What about the IC50 [2] of the same compound?
Its IC50 is > 20 µM.

How did the IC50 [1] turn out when `Cc1nsc(Nc2cnc(C(F)(F)F)cn2)c1C(=O)Nc1ccc(F)c(OCCCN(C)CC(F)F)c1` [Example 301, N-(3-{3-[(2,2-difluoroethyl)(methyl)amino]propoxy}-4-fluorophenyl)-3-methyl-5-{[5-(trifluoromethyl)pyrazin-2-yl]amino}-1,2-thiazole-4-carboxamide] was run?
The IC50 was 0.11 µM.

And the IC50 [2]?
The IC50 was > 20 µM.

For `Cc1nsc(Nc2cnc(C(F)(F)F)cn2)c1C(=O)Nc1ccc(F)c(OCCCN(C)CC(F)(F)F)c1` [Example 302, N-(4-fluoro-3-{3-[methyl(2,2,2-trifluoroethyl)amino]propoxy}phenyl)-3-methyl-5-{[5-(trifluoromethyl)pyrazin-2-yl]amino}-1,2-thiazole-4-carboxamide], which IC50 [1] is on record?
Its IC50 is 0.07 µM.

And the IC50 [2]?
Its IC50 is > 20 µM.

Which results are given for `Cc1nsc(Nc2cnc(C(F)(F)F)cn2)c1C(=O)Nc1ccc(F)c(OCCCN(C)CCC(F)(F)F)c1` [Example 303, N-(4-fluoro-3-{3-[methyl(3,3,3-trifluoropropyl)amino]propoxy}phenyl)-3-methyl-5-{[5-(trifluoromethyl)pyrazin-2-yl]amino}-1,2-thiazole-4-carboxamide]?
IC50 [1]: 0.051 µM; IC50 [2]: ≥ 20 µM

With `Cc1nsc(Nc2cncc(C(F)(F)F)n2)c1C(=O)Nc1ccc(OC2CCN(CCC(F)(F)F)CC2)nc1` [Example 304, 3-methyl-5-{[6-(trifluoromethyl)pyrazin-2-yl]amino}-N-(6-{[1-(3,3,3-trifluoropropyl)piperidin-4-yl]oxy}pyridin-3-yl)-1,2-thiazole-4-carboxamide] as the compound, how does the IC50 [1] read?
The IC50 was 0.13 µM.

What about the IC50 [2] of the same compound?
Its IC50 is > 20 µM.

Which IC50 [1] does the source give for `Cc1nsc(Nc2cnc(C(F)(F)F)cn2)c1C(=O)Nc1ccc(OCCNCC(F)F)nc1` [Example 305, N-(6-{2-[(2,2-difluoroethyl)amino]ethoxy}pyridin-3-yl)-3-methyl-5-{[5-(trifluoromethyl)pyrazin-2-yl]amino}-1,2-thiazole-4-carboxamide] here?
The IC50 was 0.51 µM.

And the IC50 [2]?
The IC50 was ≥ 20 µM.

What does the source list for `Cc1nsc(Nc2cnc(C(F)(F)F)cn2)c1C(=O)Nc1ccc(F)c(OCCCNCC(F)(F)F)c1` [Example 306, N-(4-fluoro-3-{3-[(2,2,2-trifluoroethyl)amino]propoxy}phenyl)-3-methyl-5-{[5-(trifluoromethyl)pyrazin-2-yl]amino}-1,2-thiazole-4-carboxamide]?
IC50 [1]: 0.024 µM; IC50 [2]: ≥ 20 µM

How did the IC50 [1] turn out when `Cc1nsc(Nc2cnc(C(F)(F)F)cn2)c1C(=O)Nc1ccc(F)c(OCCCNCCC(F)(F)F)c1` [Example 307, N-(4-fluoro-3-{3-[(3,3,3-trifluoropropyl)amino]propoxy}phenyl)-3-methyl-5-{[5-(trifluoromethyl)pyrazin-2-yl]amino}-1,2-thiazole-4-carboxamide] was run?
Its IC50 is 0.099 µM.

What about the IC50 [2] of the same compound?
Its IC50 is ≥ 20 µM.

For `Cc1nsc(Nc2cnc(C(F)(F)F)cn2)c1C(=O)Nc1ccc(F)c(OCC2CCN(CC(F)F)CC2)c1` [Example 308, N-(3-{[1-(2,2-difluoroethyl)piperidin-4-yl]methoxy}-4-fluorophenyl)-3-methyl-5-{[5-(trifluoromethyl)pyrazin-2-yl]amino}-1,2-thiazole-4-carboxamide], which IC50 [1] is on record?
The IC50 was 0.031 µM.

And the IC50 [2]?
Its IC50 is ≥ 20 µM.

`Cc1nsc(Nc2cnc(C(F)(F)F)cn2)c1C(=O)Nc1ccc(F)c(OCC2CCN(CCF)CC2)c1` [Example 309, N-(4-fluoro-3-{[1-(2-fluoroethyl)piperidin-4-yl]methoxy}phenyl)-3-methyl-5-{[5-(trifluoromethyl)pyrazin-2-yl]amino}-1,2-thiazole-4-carboxamide] was tested. Which IC50 [1] did it give?
Its IC50 is 0.13 µM.

What about the IC50 [2] of the same compound?
Its IC50 is ≥ 20 µM.

`Cc1nsc(Nc2cnc(C(F)(F)F)cn2)c1C(=O)Nc1ccc(F)c(OCC2CCN(CC(F)(F)F)CC2)c1` [Example 310, N-(4-fluoro-3-{[1-(2,2,2-trifluoroethyl)piperidin-4-yl]methoxy}phenyl)-3-methyl-5-{[5-(trifluoromethyl)pyrazin-2-yl]amino}-1,2-thiazole-4-carboxamide] was tested. Which IC50 [1] did it give?
The IC50 was 0.059 µM.

And the IC50 [2]?
The IC50 was ≥ 20 µM.

What does the source list for `Cc1nsc(Nc2cnc(C(F)(F)F)cn2)c1C(=O)Nc1ccc(F)c(OCC2CCN(CCC(F)(F)F)CC2)c1` [Example 311, N-(4-fluoro-3-{[1-(3,3,3-trifluoropropyl)piperidin-4-yl]methoxy}phenyl)-3-methyl-5-{[5-(trifluoromethyl)pyrazin-2-yl]amino}-1,2-thiazole-4-carboxamide]?
IC50 [1]: 0.13 µM; IC50 [2]: > 20 µM

Which IC50 [1] does the source give for `Cc1nsc(Nc2cnc(C(F)(F)F)cn2)c1C(=O)Nc1ccc(F)c(OCC2CCN(C(CF)CF)CC2)c1` [Example 312, N-(3-{[1-(1,3-difluoropropan-2-yl)piperidin-4-yl]methoxy}-4-fluorophenyl)-3-methyl-5-{[5-(trifluoromethyl)pyrazin-2-yl]amino}-1,2-thiazole-4-carboxamide] here?
Its IC50 is 0.082 µM.

And the IC50 [2]?
The IC50 was ≥ 20 µM.

Which results are given for `Cc1nsc(Nc2cnc(C(F)(F)F)cn2)c1C(=O)Nc1ccc(OC2CCN(C(CF)CF)C2)nc1` (stereo not drawn) [Example 313, N-(6-{[1-(1,3-difluoropropan-2-yl)pyrrolidin-3-yl]oxy}pyridin-3-yl)-3-methyl-5-{[5-(trifluoromethyl)pyrazin-2-yl]amino}-1,2-thiazole-4-carboxamide]?
IC50 [1]: 0.14 µM; IC50 [2]: ≥ 20 µM

With `Cc1nsc(Nc2cnc(C(F)(F)F)cn2)c1C(=O)Nc1ccc(F)c(OC2CCN(CC(F)F)C2)c1` (stereo not drawn) [Example 314, N-(3-{[1-(2,2-difluoroethyl)pyrrolidin-3-yl]oxy}-4-fluorophenyl)-3-methyl-5-{[5-(trifluoromethyl)pyrazin-2-yl]amino}-1,2-thiazole-4-carboxamide] as the compound, how does the IC50 [1] read?
The IC50 was 0.053 µM.

And the IC50 [2]?
Its IC50 is ≥ 20 µM.

With `Cc1nsc(Nc2cnc(C(F)(F)F)cn2)c1C(=O)Nc1ccc(F)c(OC2CCN(CC(F)(F)F)C2)c1` (stereo not drawn) [Example 315, N-(4-fluoro-3-{[1-(2,2,2-trifluoroethyl)pyrrolidin-3-yl]oxy}phenyl)-3-methyl-5-{[5-(trifluoromethyl)pyrazin-2-yl]amino}-1,2-thiazole-4-carboxamide] as the compound, how does the IC50 [1] read?
The IC50 was 0.0043 µM.

What about the IC50 [2] of the same compound?
Its IC50 is ≥ 20 µM.

With `Cc1nsc(Nc2cnc(C(F)(F)F)cn2)c1C(=O)Nc1ccc(F)c(OCC2CCN(CC(F)F)C2)c1` (stereo not drawn) [Example 316, N-(3-{[1-(2,2-difluoroethyl)pyrrolidin-3-yl]methoxy}-4-fluorophenyl)-3-methyl-5-{[5-(trifluoromethyl)pyrazin-2-yl]amino}-1,2-thiazole-4-carboxamide] as the compound, how does the IC50 [1] read?
Its IC50 is 0.028 µM.

And the IC50 [2]?
Its IC50 is ≥ 20 µM.

`Cc1nsc(Nc2cnc(C(F)(F)F)cn2)c1C(=O)Nc1ccc(F)c(OCC2CCN(CCF)C2)c1` (stereo not drawn) [Example 317, N-(4-fluoro-3-{[1-(2-fluoroethyl)pyrrolidin-3-yl]methoxy}phenyl)-3-methyl-5-{[5-(trifluoromethyl)pyrazin-2-yl]amino}-1,2-thiazole-4-carboxamide] was tested. Which IC50 [1] did it give?
Its IC50 is 0.088 µM.

What about the IC50 [2] of the same compound?
The IC50 was > 20 µM.

`Cc1nsc(Nc2cnc(C(F)(F)F)cn2)c1C(=O)Nc1ccc(F)c(OCC2CCN(C(CF)CF)C2)c1` (stereo not drawn) [Example 320, N-(3-{[1-(1,3-difluoropropan-2-yl)pyrrolidin-3-yl]methoxy}-4-fluorophenyl)-3-methyl-5-{[5-(trifluoromethyl)pyrazin-2-yl]amino}-1,2-thiazole-4-carboxamide] was tested. Which IC50 [1] did it give?
The IC50 was 0.055 µM.

And the IC50 [2]?
Its IC50 is ≥ 20 µM.
